In patent US12263140B1, “Methods of reducing the production of greenhouse gases from animals” (AGRICULTURAL SCIENCES LIMITED, priority 2023, dated 2025):

What was measured:
cow pats (faeces) = assay: Fermentation of cow pats from cows drenched with vitamin K1; assay type: in vivo; settings: FIG. 9; no vitamin K1 added to the cow pats
Description: The cows in both fields were of the same breed and provenance.
The resulting cow pat samples were fermented using the apparatus described in Example 1 and FIG. 1 and gas produced collected and tested. Vitamin K1 was not added to the cow pats.
An qualitative test was also completed where the smell of the gases in the fermentation chambers were assessed at the end of fermentation.

pig faeces = assay: Fermentation of diluted pig faeces; assay type: cell-based; settings: 1% steep fluid
Description: Fresh pig faeces samples were mixed with an equal volume of distilled water.
Six 50 ml fermentation tubes were used in the fermentation experiment.
The controls were […] fermentation tubes filled to the top with diluted pig faeces.
The fermentation tubes were gently agitated in a water bath held in the dark at 36° C.

sheep = assay: Sheep exhalant breath trial after vitamin K1 drench (Douglas Bag type apparatus, Micro GC); assay type: in vivo
Description: The sheep tested in this trial were ewe sheep. In this and all subsequent sheep trials, the sheep were yarded for 24 hours before the trial commenced, so their rumen was at least partially empty since they could not eat when yarded. In total, 60 sheep were tested in similar trials on two different sheep farms. The sheep in each trial were divided randomly into two equal groups, one group being an experimental group and the other group being a control group.
The sheep were driven into a race and each individual was drenched as they came to the end of the race. Sheep in the experimental group and control group were given a 50 ml drench prior to yard release and normal grazing and behaviour.
The sheep were let out to feed in a field and allowed to graze on grass freely. They were herded back at intervals and their exhalant breath captured. The breath exhalation of sheep was measured using the apparatus shown in FIG. 4, according to one or more embodiments, being an instrument based on Douglas Bag equipment for the sampling of exhalant breath from humans. Note that the air space in the tubes shown in FIG. 4 is exaggerated in the drawing, according to one or more embodiments. In reality, the air space may be kept to as small a volume as possible to avoid contamination of the exhalant breath with the dead air in the tubes. The gas impermeable bag used for exhalant breath capture must be as big as possible since methane is largely released periodically as a burp rather than in the exhalant breath.
The apparatus of FIG. 4 was designed specifically for use on sheep, according to one or more embodiments. On inspiration by the sheep, the valve opens and the sheep is able to breath in fresh air. On exhalation by the sheep, the valve closes and the exhaled air is directed in to the gas impermeable balloon. It is important that the balloon used is not expanded by the exhaled air, but is merely collected. Otherwise, back pressure may develop which has the potential to interfere with the breathing of the sheep. The valve could be either a flap valve or a table tennis ball. The latter was identified by the inventor as an ideal light weight valve.
The breath exhalant collected was analysed using an Agilent Micro GC with 2 dual columns: molecular sieve 5A and Plot-Q columns.
The six control sheep were drenched with 50 ml of 30% ethyl alcohol plus 50 ml water.
In this trial, the same trial was completed as in Example 3 above however, in this trial male sheep (rams) were trialed and the exhalant breath of the trial animals was tested over a time period of two days, samples taken on day 0, 1 and 2. Five rams were drenched with vitamin K1 and four rams were not drenched at all and used as controls.

cow rumen fluid = assay: SIFT-MS analysis of gas from grass fermentations by cow rumen fluid; assay type: cell-based
Text: A SIFT-MS analyser was further used to confirm the above noted effects in terms of reductions in methane. A SIFT-MS device (see https://syft.com/sift-ms-technology/) is an advanced method for analysing mixtures of smaller volatile organic compounds.

[1] = system: rumen fluid from live fistulated cows; assay: Fermentation of dried grass with rumen fluid from treated live fistulated cows, 12 hours (Example 11); assay type: in vivo, cow; settings: 36° C., dark, 1 g dried grass
Description: In this trial, samples of rumen fluid from live fistulated cows were collected, passed through butter muslin (cheese cloth) and the fluid transferred to pre-warmed Thermos™ flasks.
Six fermentation vessels had 1 g of dried grass added to each.
Three vessels, the Experimentals, were filled with the rumen fluid from the treated cows. The other three vessels, the controls, were filled with rumen fluid from the untreated cows. All vessels were gently incubated at 36° C. in the dark for 12 hours.

[2] = system: rumen regions AD, PD, PV, AV; assay: Natural fermentation and pH of fluid from different rumen regions; assay type: cell-based, cow; settings: FIG. 13
Text: The different rumen regions were sampled by collecting the rumen of a slaughtered animal and making a cut with a sterile knife in a particular region and then palpating fluid samples using gloved hands from the cut. Cuts were made in the anterior dorsal region of the rumen (AD), the posterior region (PD), the posterior ventral (PV) and the anterior ventral (AV).
FIG. 13 is a graph showing the results of natural fermentation (without the addition of substrate other than the material eaten by the cow before death), according to one or more embodiments.
The pH difference between experimental, which were dosed with vitamin K1, and the controls, which were not dosed with vitamin K1, was greatest at position AD. The average pH in the control samples was 6.51 and in the experimental samples, the average pH was 6.34.

[3] = system: rumen fluid from live cows; assay: Fermentation of dried grass with rumen fluid from fistulated cows that drank dilute vitamin K1 solution; assay type: in vivo, cow; settings: drinking water, 100 ml of tincture to 20 litres of water
Text: The collected rumen fluid was then fermented with dried grass in the fermenter described in Example 1 and FIG. 1.

CC1=C(C/C=C(\C)CCC[C@H](C)CCC[C@H](C)CCCC(C)C)C(=O)c2ccccc2C1=O [vitamin K1]
vitamin K1 effect on gas production carried through to faeces (cow pats (faeces)): still active in the faeces
emission of methane gas from faeces (pig faeces): completely inhibited
emitted methane in exhalant breath (sheep; ewes drenched with tincture plus water, versus control sheep): significant reduction
ill effects after dosing (sheep; ewes, drench): did not show any ill effects
percentage decrease in methane production compared to control sheep (sheep; rams, drench, day 2): 71%
amount of emitted gasses, carbon dioxide and methane (sheep; treated versus control sheep): marked lessening
reduction in methane compared with controls (cow rumen fluid): 83.6%
reduction in total volume compared with controls (cow rumen fluid): 56.8%
CO2, of controls [1]: 39.35%
methane formation, of controls [1]: 25.6%
total gas volume, of controls [1]: 25.6%
rumen region of greatest inhibition [2]: maximum inhibitory effect in the PV region
rate of methane production in rumen regions ([2]; natural fermentation without added substrate): lower the rate of methane production
reduction in carbon dioxide production [3]: approximately 29%
reduction in methane production [3]: approximately 20%
reduction in total gas production [3]: approximately 25%
